# Reference: patent US20170367338A1, “COMPOSITIONS AND METHODS FOR IMPROVING AGRONOMIC CHARACTERISTICS OF PLANTS” (MONSANTO TECHNOLOGY LLC, priority 2014, published 2017)
# Read-outs that look alike come from different tables or passages of the source.
# Tests used:
# Format in all cases: in vivo
# C. elegans = assay: Three day C. elegans well assay; settings: for EC50: Caenorhabditis elegans
# Procedure: Various compounds were tested for nematicidal activity against C. elegans using contact assays in wells. The assays were performed as described below. The test compounds were solubilized in DMSO at 10 mg/ml to create 100× stock solutions. A dilution series was created by diluting the stock solution with DMSO. For each well assay 4 ul of the appropriate dilution is added to a well of a test plate. A 400 ul aliquot of bacterial stock (in M9 buffer with ampicillin and nystatin) are added to each well of the test plate. Worms are added and the test plate placed on a rotary shaker and held at 20° C. Worms are examined and scored at 4 hrs, 24 hrs, 48 hrs and 72 hours. L1 worms and L4 worms were used in the assay. L1 worms are prepared by plating eggs on a plate without a bacterial feeding layer. The eggs hatch and arrest at the L1 stage. This L1 stage population is then used to create a stock for the experiments. To create an L4 stage stock a small number of worms are taken from an overgrown and starved plate of worms and seeded on a plate with a bacterial feeder layer. A 25 ul aliquot of worms is added to each well in the assay.
# [1] = tested on: Heterodera glycines (SCN); assay: Seed treatment test of soybean cyst nematode on soybean; settings: Heterodera glycines, 672 h, test b, read-out: percent cyst reduction relative to control blank treatment; for pest or weed control at 0.375 mg/g: 0.375 mg ai/gram seed; for pest or weed control at 1.5 mg/g: 1.5 mg ai/gram seed
# Procedure: For a given concentration the chemical is dissolved in 500 ul of acetone and one gram of cucumber seed (RKN test) or soybean seed (SCN test) is added (e.g., 20 mg active ingredient in 500 ul acetone plus 1 gram of seed). The seed solutions are agitated until all seeds were thoroughly covered with the chemical solution. The acetone is then allowed to evaporate by air drying the seeds. The seeds are planted in 2-inch pots containing sandy soil and then the pots are inoculated with 1000 Meloidogyne incognita (RKN) or 1000 Heterodera glycines (SCN) eggs per pot three days after planting. Plants are rated for galling 14 days after egg inoculation for RKN or 28 days after egg inoculation for SCN.
# Meloidogyne incognita = assay: Summer field evaluation of pre-plant incorporated compounds on squash; settings: 2 kg/ha PPI, squash
# Procedure: Test plots of 33 cm diameter holes were bored 41 cm deep into clay soil and filled with a mixture of 80% sand and 20% silt loam soil. Technical compound for each treatment was dissolved in 50 ml acetone containing 250 ul of Triton X-100 surfactant. This solution was added to 450 ml water and poured onto 95 liters of sand/soil mixture in a rotating drum mixer. While continuing to rotate the mixing drum 66 grams of chopped, galled, tomato roots was added and thoroughly distributed. The treated soil was sufficient to fill the top 15 cm of each of the 6 replicate plots, thus simulating a PPI treatment. The plots were then watered lightly and a mixture of M. incognita eggs and larvae were injected 5 cm deep at 5 points within the plot (100k eggs/larvae in 10m1 per plot). Three-week old squash (cv. Liberator III) with 1 fully expanded true leaf was planted 4 days after soil treatment, one per plot.
# [2] = 24 h, L1 larvae, one day of exposure, read-out: EC50 L1 1D
# [3] = 24 h, L4 larvae, one day of exposure, read-out: EC50 L4 1D
# [4] = 48 h, L1 larvae, two days of exposure, read-out: EC50 L1 2D
# [5] = 48 h, L4 larvae, two days of exposure, read-out: EC50 L4 2D
# [6] = 72 h, L1 larvae, three days of exposure, read-out: EC50 L1 3D
# [7] = 72 h, L4 larvae, three days, effects on the second generation larvae, read-out: EC50 L4 3D (F1)
SMILES,EC50 (C. elegans; [2]) [µg/mL],EC50 (C. elegans; [3]) [µg/mL],EC50 (C. elegans; [4]) [µg/mL],EC50 (C. elegans; [5]) [µg/mL],EC50 (C. elegans; [6]) [µg/mL],EC50 (C. elegans; [7]) [µg/mL],further results
Cc1cc(F)ccc1-c1noc(-c2ccco2)n1 [compound 5846],1.6,1.6,0.4,1.6,0.4,1.6,–
Fc1ccc(-c2noc(-c3cccs3)n2)c(F)c1 [compound 5847],–,–,0.4,1.6,0.4,1.6,"pest or weed control at 0.375 mg/g [1]: 66%; pest or weed control at 1.5 mg/g [1]: 80%; EC50 L1 1D (C. elegans; L1 larvae, one day of exposure): no; EC50 L4 1D (C. elegans; L4 larvae, one day of exposure): no"
Fc1cc(Br)ccc1-c1noc(-c2cccs2)n1 [compound 5848],1.6,1.6,0.4,1.6,0.4,1.6,–
Fc1ccc(-c2noc(-c3ccco3)n2)c(F)c1 [compound 5849],6.3,–,0.4,–,1.6,6.3,"EC50 L4 1D (C. elegans; L4 larvae, one day of exposure): no"
Fc1cc(Br)ccc1-c1noc(-c2ccco2)n1 [compound 5850],1.6,1.6,0.4,1.6,0.4,1.6,–
Fc1cc(Cl)ccc1-c1noc(-c2cccs2)n1 [compound 5860],1.6,1.6,0.4,1.6,0.4,1.6,–
Fc1cc(Cl)ccc1-c1noc(-c2ccco2)n1 [compound 5861],0.4,1.6,0.4,1.6,0.4,1.6,–
Fc1cc(F)c(-c2noc(-c3cccs3)n2)c(F)c1 [compound 5878],–,–,–,–,–,–,pest or weed control at 0.375 mg/g [1]: 43%; pest or weed control at 1.5 mg/g [1]: 77%
Clc1ccc(-c2nsc(-c3cccs3)n2)cc1 [compound 5905],0.4,–,0.4,–,0.4,–,–
Clc1ccc(-c2nsc(-c3ccco3)n2)cc1 [compound 5906],0.4,–,0.4,–,0.4,–,–
Fc1cc(Cl)ccc1-c1nsc(-c2ccco2)n1 [compound 5953],–,–,–,–,–,–,pest or weed control at 0.375 mg/g [1]: 44%; pest or weed control at 1.5 mg/g [1]: 77%
CCOP(=O)(SC(C)CC)N1CCSC1=O (stereo not drawn) [fosthiazate],–,–,–,–,–,–,0-3 vigor 16DAP (Meloidogyne incognita): 3.0; 0-3 vigor 21DAP (Meloidogyne incognita): 3.0; feeder root (3 = ave) 31DAP (Meloidogyne incognita): 2.3; gall % 31DAP (Meloidogyne incognita): 5%; root wgt (g) 31DAP (Meloidogyne incognita): 26.4 g; top wgt (lbs) 31DAP (Meloidogyne incognita): 2.01 lbs; total fruit (lbs) (Meloidogyne incognita): 1.25 lbs
